From PMC9936582, “Sulfamate Acetamides as Self-Immolative Electrophiles for Covalent Ligand-Directed Release Chemistry” (Journal of the American Chemical Society, 2023)
“Also recorded” adds a separate entry of the source.

Experiments:
[1] = Glutamic acid reactivity of model compounds (LC/MS); conditions: pH 8, 37 °C; 4 days
[2] = GSH consumption assay (LC/MS); conditions: for reactivity towards GSH relative to chloroacetamide (1a): 5 mM GSH, 200 μM electrophile, pH 8, 14 °C; for covalent bond formation with GSH: assay conditions or temperatures up to 37 °C for 24 h
Method: A sample from the reaction mixture was injected to an LC/MS every hour, and we quantified the decrease in starting material over the course of the reaction.
All solvents were bubbled with argon. Reaction mixtures were kept at 10 °C. Every 1 h, 5 μL from the reaction mixture were injected into the LC/MS. The reaction was followed by the peak area of the electrophile normalized by the area of the 4-nitrocyano benzene (i.e., by the disappearance of the starting material). The natural logarithm of the results was fitted to linear regression, and t1/2 was calculated as t1/2 = ln 2/–slope.

BTK [3] = molecular target: T1, BTK (Homo sapiens, UniProt Q06187); experiment: BTK activity (autophosphorylation) in Mino cells, Western blot; type: cell-based; parameters: endogenous in cells; host or cells: Mino cells
Method: To assess the cellular efficacy of these compounds, we followed the inhibition of BTK autophosphorylation in Mino cells. After 1 h of pre-incubation with the inhibitors and B-cell activation with an anti-IgM antibody, BTK autophosphorylation was followed by Western blot.
The cell pellets were subjected to immunoblotting, and Western blots were performed for p-BTK, BTK, and β-actin.
Cell pellets were washed with ice-cold PBS and lysed using RIPA buffer (Sigma, R0278). […] Samples containing 50 μg total protein were prepared with 4× LDS sample buffer (NuPAGE, Thermo Scientific, NP0007) and 20 mM DTT, which were then resolved on a 4–20% Bis–Tris gel (GeneScript SurePAGE, M00657). […] An EZ-ECL Kit (Biological Industries, 20-500-1000) was used to detect HRP activity.
Target sequence in this assay (Q06187 whole entry): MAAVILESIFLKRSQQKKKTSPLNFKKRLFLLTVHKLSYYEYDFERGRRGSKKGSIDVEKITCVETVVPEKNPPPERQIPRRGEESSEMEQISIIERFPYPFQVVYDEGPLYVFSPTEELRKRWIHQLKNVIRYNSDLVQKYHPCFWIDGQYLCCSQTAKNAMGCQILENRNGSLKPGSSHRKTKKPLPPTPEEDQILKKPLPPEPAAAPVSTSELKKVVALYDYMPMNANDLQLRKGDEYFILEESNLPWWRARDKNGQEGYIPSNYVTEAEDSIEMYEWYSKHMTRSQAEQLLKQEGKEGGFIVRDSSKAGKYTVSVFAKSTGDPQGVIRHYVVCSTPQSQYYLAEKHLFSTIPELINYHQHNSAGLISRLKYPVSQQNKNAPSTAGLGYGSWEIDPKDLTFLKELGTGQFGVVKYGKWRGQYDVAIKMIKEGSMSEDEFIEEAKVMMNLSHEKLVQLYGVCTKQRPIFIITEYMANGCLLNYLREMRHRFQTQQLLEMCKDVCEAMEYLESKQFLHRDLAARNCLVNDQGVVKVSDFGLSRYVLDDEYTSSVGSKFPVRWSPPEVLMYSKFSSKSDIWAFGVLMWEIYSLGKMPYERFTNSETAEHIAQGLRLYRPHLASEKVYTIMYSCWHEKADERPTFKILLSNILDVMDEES

BTK [4] = molecular target: T1, BTK; experiment: In vitro kinase activity assay (Nanosyn); conditions: for BTK inhibition (in words): 0.5 nM BTK, 5 μM ATP
Target sequence in this assay (Q06187 whole entry): as above

BTK [5] = molecular target: T1, BTK; experiment: Intact protein mass spectrometry labeling of recombinant BTK; type: binding; parameters: BTK kinase domain was expressed and purified as previously reported; made in house; conditions: 2 μM BTK, 2 μM compound, pH 8, 25 °C
Method: BTK kinase domain was expressed and purified as previously reported.[66] Binding experiments were performed in Tris 20 mM (pH 8.0) and 50 mM NaCl at room temperature.
(§1) The reaction mixtures, at room temperature for various times, were injected into the LC/MS. For data analysis, the raw spectra were deconvoluted using a 20,000:40,000 Da (For Pin1, 10,000:30,000) window and 1 Da resolution. The labeling percentage for a compound was determined as the labeling of a specific compound (alone or together with other compounds) divided by the overall detected protein species.
Target sequence in this assay (Q06187 402-655 limits assumed): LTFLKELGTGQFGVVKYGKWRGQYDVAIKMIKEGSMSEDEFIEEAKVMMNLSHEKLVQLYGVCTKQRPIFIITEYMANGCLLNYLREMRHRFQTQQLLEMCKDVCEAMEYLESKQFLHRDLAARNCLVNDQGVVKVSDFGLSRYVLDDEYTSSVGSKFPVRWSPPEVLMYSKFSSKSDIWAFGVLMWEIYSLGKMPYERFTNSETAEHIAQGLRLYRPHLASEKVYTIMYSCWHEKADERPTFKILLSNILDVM

Buffer stability assay = type: physicochemical
Method: Reaction mixtures were kept at 37 °C with shaking. After 4 days (unless otherwise mentioned), 5 μL from the reaction mixture were injected into the LC/MS to check the stability of the compounds.

Pin1 = molecular target: T2, Pin1 (Homo sapiens, UniProt Q13526); experiment: Intact protein MS labeling of Pin1; type: binding; conditions: 2 μM Pin1, 2 μM compound, pH 7.5, 1 h, 25 °C
T2 construct: The catalytic domain of Pin1 (2 μM) in […] and 75 mM NaCl (pH 7.5) was incubated; made in house
T2 sequence (Q13526 52-163 limits assumed): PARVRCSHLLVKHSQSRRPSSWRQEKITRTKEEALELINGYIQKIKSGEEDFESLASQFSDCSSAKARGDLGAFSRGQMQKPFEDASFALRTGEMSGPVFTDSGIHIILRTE
Method: Initially, we incubated these compounds (4a–4g; 2 μM) with Pin1 (2 μM; 50 mM Tris buffer; pH 7.5, 1 h; 25 °C) to check covalent labeling by intact protein MS (Figure 5B,C; Figure S23). Under these conditions, sulfopin labeled 59% as previously reported;[38] the sulfonate (4a) labeled 18%, whereas alkyl sulfamates (4b and 4c) labeled 16 and 56%, respectively. […] We have previously reported that replacing the tert-butyl group in sulfopin by a cyclohexyl increases the labeling along with intrinsic thiol reactivity. Compound 4g contains a cyclohexyl group instead of the tert-butyl and a phenyl sulfamate electrophile and was able to label >95% of Pin1 under these conditions.
Pin1 was expressed and purified as previously reported.[38] The catalytic domain of Pin1 (2 μM) in […] and 75 mM NaCl (pH 7.5) was incubated with 2 μM sulfopin sulfamate (4a–4g) for 1 h at 25 °C.
as §1

[6] = DTNB thiol reactivity assay; type: physicochemical
Method: The compound 5,5′-dithio-bis(2-nitrobenzoic acid) (DTNB; 50 μM) was incubated with 200 μM tris(2-carboxyethyl)phosphine (TCEP) in 20 mM sodium phosphate buffer (pH 7.4) and 150 mM NaCl for 5 min at room temperature to obtain TNB^–2. […] UV absorbance was acquired every 15 min for 7 h. The assay was performed in a 384-well plate using a Tecan Spark 10 M plate reader. […] Compounds were measured in triplicate. The data were fitted to a second-order reaction equation such that the rate constant (K) is the slope of ln([A][B0]/[B][A0]), where [A0] and [B0] are the initial concentrations of the compound (200 μM) and TNB^–2 (100 μM), respectively, and [A] and [B] are the remaining concentrations as a function of time as deduced from spectrometric measurements. Linear regression using Prism was performed to fit the rate against the first 7 h of measurements.

[7] = Metabolic stability of sulfopin analogues in liver microsomes; type: in vitro ADME
Method: Next, we examined the buffer stability of the sulfopin sulfamate acetamides in PBS buffer (pH 8; 37 °C). Similar to the model compounds, the chloroacetamide (sulfopin) and sulfonate (4a) warheads show 30 and 15% hydrolysis after 2 days, respectively (Figure S26).
Figure S27: Sulfopin sulfamates show high metabolic stability: Compounds (Sulfopin, 4d, and 4g) were incubated
in liver microsomes and injected to LC/MS/MS at indicated time points. The peak intensities of the compounds were […]

CNS(=O)(=O)OCC(=O)NCc1ccccc1 [1d]
reaction with glutamic acid [1]: did not react | reactivity towards GSH relative to chloroacetamide (1a) [2]: an order of magnitude less reactivity

O=C(COS(=O)(=O)NCc1ccccc1)NCc1ccccc1 [1e]
reaction with glutamic acid [1]: did not react | reactivity towards GSH relative to chloroacetamide (1a) [2]: an order of magnitude less reactivity

CS(=O)(=O)CC(=O)NCc1ccccc1 [1i]
covalent bond formation with GSH [2]: did not form a covalent bond with GSH

O=C(CS(=O)(=O)c1ccccc1)NCc1ccccc1 [1j]
covalent bond formation with GSH [2]: did not form a covalent bond with GSH

Nc1ncnc2c1c(-c1ccc(Oc3ccccc3)cc1)nn2[C@@H]1CCCN(C(=O)CCl)C1 [3a]
less potency in cellular pBTK inhibition (BTK [3]): 20 fold | BTK inhibition (in words) (BTK [4]): potent BTK inhibition

CS(=O)(=O)OCC(=O)N1CCC[C@@H](n2nc(-c3ccc(Oc4ccccc4)cc3)c3c(N)ncnc32)C1 [3b]
IC50 (BTK [3]; anti-IgM activation, Western blot normalized to β-actin): 6 nM | BTK inhibition (in words) (BTK [4]): potent BTK inhibition | labeling of BTK (BTK [5]; within 10 min): more than 95%

Nc1ncnc2c1c(-c1ccc(Oc3ccccc3)cc1)nn2[C@@H]1CCCN(C(=O)COS(=O)(=O)Nc2ccccc2)C1 [3e]
IC50 (BTK [4]): 100 nM

CS(=O)(=O)CC(=O)N1CCC[C@@H](n2nc(-c3ccc(Oc4ccccc4)cc3)c3c(N)ncnc32)C1 [3f]
covalent reaction with BTK (BTK [5]): no labeling; also recorded: failed to react covalently with BTK

Nc1ncnc2c1c(-c1ccc(Oc3ccccc3)cc1)nn2[C@@H]1CCCN(C(=O)CS(=O)(=O)c2ccccc2)C1 [3g]
IC50 (BTK [4]): 500 nM | covalent reaction with BTK (BTK [5]): no labeling; also recorded: failed to react covalently with BTK

CC(C)(C)CN(C(=O)COS(C)(=O)=O)C1CCS(=O)(=O)C1 (stereo not drawn) [4a]
hydrolysis (buffer stability, sulfopin analogues) (Buffer stability assay; 200 μM, PBS buffer pH 8, 37 °C for four days): 15% | hydrolysis (buffer stability, sulfopin analogues) (Buffer stability assay; PBS buffer pH 8, 37 °C, after 2 days): 15% | labeling of Pin1 (Pin1): 18%

CNS(=O)(=O)OCC(=O)N(CC(C)(C)C)C1CCS(=O)(=O)C1 (stereo not drawn) [4b]
labeling of Pin1 (Pin1): 16%

CC(C)(C)CN(C(=O)COS(=O)(=O)NCc1ccccc1)C1CCS(=O)(=O)C1 (stereo not drawn) [4c]
thiol reactivity compared to sulfopin [6]: lower thiol reactivity than sulfopin | labeling of Pin1 (Pin1): 56%

CC(C)(C)CN(C(=O)COS(=O)(=O)Nc1ccc(Br)cc1)C1CCS(=O)(=O)C1 (stereo not drawn) [4e]
thiol reactivity compared to sulfopin [6]: lower thiol reactivity than sulfopin | labeling of Pin1 (Pin1): > 90%

Cc1ccc(NS(=O)(=O)OCC(=O)N(CC(C)(C)C)C2CCS(=O)(=O)C2)cc1 (stereo not drawn) [4f]
labeling of Pin1 (Pin1): less than 30%

O=C(COS(=O)(=O)Nc1ccccc1)N(CC1CCCCC1)C1CCS(=O)(=O)C1 (stereo not drawn) [4g]
thiol reactivity compared to sulfopin [6]: slightly higher reactivity | metabolic stability (in words) [7]: good metabolic stability | labeling of Pin1 (Pin1): > 95%
